Test results from PMC10641831 (Journal of Medicinal Chemistry, 2023).
Where “and” joins values, the source holds several entries; their conditions need not be identical. Equal values may be shown once. Read-outs that look alike come from different tables or passages of the source. Numbered stars: 1 amine (or outer) side, 2 acyl side, 3 side chain; on linkers, the order of the positions; unused ones are H or OH. Bridge positions count the residues as written; N and C are the ends. Square brackets hold non-standard residues; d marks the D form. Peptide text beside a SMILES is read from it. AMPB(E) = O=C(c1ccc(/N=N/c2ccc(CN[*:1])cc2)cc1)[*:2]; X2 = O=C(c1ccc(/N=N\c2ccc(CN[*:1])cc2)cc1)[*:2]

Experiments:
[1] = biological target: T1, hV1aR (Homo sapiens, UniProt P37288); experiment: IP-One accumulation assay, agonist function, HEK293 cells expressing hV1aR; format: cell-based; details: for agonist activity at V1aR: concentrations up to 10 μM
T1 construct: expressed in transfected cells
T1 sequence (P37288 whole entry): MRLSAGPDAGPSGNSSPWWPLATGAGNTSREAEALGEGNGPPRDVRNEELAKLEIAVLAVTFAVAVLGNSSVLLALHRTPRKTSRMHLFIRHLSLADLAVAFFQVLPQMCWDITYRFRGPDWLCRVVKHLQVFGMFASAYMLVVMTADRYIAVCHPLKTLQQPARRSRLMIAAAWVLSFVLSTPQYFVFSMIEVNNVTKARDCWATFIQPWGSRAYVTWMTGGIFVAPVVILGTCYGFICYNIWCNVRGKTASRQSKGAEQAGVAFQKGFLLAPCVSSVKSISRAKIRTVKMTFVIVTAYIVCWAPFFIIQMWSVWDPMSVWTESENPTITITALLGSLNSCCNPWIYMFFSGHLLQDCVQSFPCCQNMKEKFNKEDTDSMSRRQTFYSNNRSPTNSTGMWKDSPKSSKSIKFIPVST

[2] = biological target: T2, hV1bR (Homo sapiens, UniProt P47901); experiment: IP-One accumulation assay, agonist function, HEK293 cells expressing hV1bR; format: cell-based; details: for Emax: HEK293, relative to the effect of VP, read-out: V1bR Emax ± SEM; for V1bR E/Z ratio EC50: ratio of EC50 of E- and Z-isomer; for reduced potency at V1bR compared to VP: EC50 vs VP
T2 construct: expressed in transfected cells
T2 sequence (P47901 1-424): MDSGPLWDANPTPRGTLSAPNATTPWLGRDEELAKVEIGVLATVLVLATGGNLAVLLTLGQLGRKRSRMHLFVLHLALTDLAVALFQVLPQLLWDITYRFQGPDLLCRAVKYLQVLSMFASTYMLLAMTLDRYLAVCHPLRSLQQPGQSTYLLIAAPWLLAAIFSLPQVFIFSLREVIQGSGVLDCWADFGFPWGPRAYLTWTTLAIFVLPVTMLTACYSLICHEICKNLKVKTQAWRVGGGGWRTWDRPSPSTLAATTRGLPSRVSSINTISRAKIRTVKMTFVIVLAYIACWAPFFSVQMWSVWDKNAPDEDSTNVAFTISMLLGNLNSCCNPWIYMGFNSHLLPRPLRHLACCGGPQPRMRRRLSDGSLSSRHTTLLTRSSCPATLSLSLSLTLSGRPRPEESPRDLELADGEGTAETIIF

[3] = biological target: T1, hV1aR; experiment: IP-One accumulation assay, antagonist function (VP displacement) at hV1aR; format: cell-based; details: coaddition of VP 1 nM; for antagonistic activity at V1aR: 10 and 100 μM; for VP displacement: at 10 μM
Experimental: This was done via coaddition and prior mixing of VP (EC60 of 1 nM) and the potential antagonists 13–19. […] IP1 accumulation was measured at concentrations of 10 and 100 μM for peptides 13–19.
Figure 5 Functional screen for antagonistic activities at V1aR. […] Data represent mean ± SEM from at least three independent experiments, each performed in triplicate.
To assess the antagonistic properties of compounds 13–19, a 4-fold concentrated dilution series in stimulation buffer was prepared for each isomer. Separately, a 4-fold concentrated VP solution was prepared (4 nM, final concentration 1 nM). A 1:1 mixture of VP solution and the diluted ligand was made to end up with a 2-fold concentration of both compounds. The following steps were conducted as described above for the agonist mode. The FRET ratios (665/615 nm) were calculated and obtained values were normalized to the basal activity value (0%) and maximal effect of VP (100%). Atosiban was used as a positive control.

[4] = Thermal half-life of the Z-isomer (UV/vis, 96-well plate); format: physicochemical; details: for t1/2 (thermal half-life, Figure S50): 50 µM in HEPES buffer + 0.25% DMSO, pre-irradiated with 340 nm; for t1/2 (thermal half-life Z to E): preirradiation with 340 nm
Excerpt: All photoprobes were investigated regarding their photophysical properties in aqueous buffer (pH 7.5), mimicking the conditions of the biological functional assays. […] Upon irradiation with 340 nm light for 10 s and monitoring via UV/vis spectroscopy, all compounds could be switched to the Z-isomer, reaching the photostationary state (PSS). Compounds 8–17 containing azobenzene could be switched back to the E-isomer by irradiation at 420 nm for 60 s. Compounds 18 and 19 containing arylazopyrazole could be reverted to the E isomer by using 528 nm light. […] The PSS, when switched to the Z-isomer, was consistently good, with a PSS of 81–95%. […] The thermal half-lives of 10 and 12 were also measured at 37 °C, representing the temperature during the biological assays. As expected, the thermal half-lives decreased, however, the ratio of E and Z isomers remained stable during the incubation period of the biological assays (1 h).
Starting materials and commercial reagents were purchased from Acros, Alfa Aesar, Fisher, Fluka, Fluorochem, Merck (Sigma-Aldrich), TCI and VWR and were used without further purification. Solvents were used in p.a. quality or dried according to common procedures if necessary. All reactions with oxygen- or moisture-sensitive reagents were carried out in glassware that was dried before use by heating under vacuum. Dry nitrogen or argon was used for an inert gas atmosphere. All NMR spectra were measured at room temperature (20 °C) using a Bruker Avance 400 (400 MHz for ^1H and 101 MHz for ^13C) or a Bruker Avance 600 (600 MHz for ^1H and 151 MHz for ^13C) NMR spectrometer. All chemical shifts are reported in δ-scale as parts per million [ppm] (multiplicity, coupling constant J, number of protons) relative to the solvent residual peaks. Coupling constants J are given in hertz [Hz]. Abbreviations used for signal multiplicity: ^1H NMR: s = singlet, d = doublet, dd = doublet of doublets, ddd = doublet of doublets of doublets, dt = doublet of triplets, t = triplet, td = triplet of doublets, q = quartet, and m = multiplet. All mass spectra were recorded on an Agilent Q-TOF 6540 UHD, Finnigan MAT SSQ 710 A, Jeol AccuTOF GCX or ThermoQuest Finnigan TSQ 7000 spectrometer. Absorption spectra were recorded on an UV/vis Agilent Cary 50 spectrometer. Thermal half-lives were measured on a 96-well plate in a Thermo Scientific Multiskan Spectrum. Analytical TLC was performed on silica gel-coated alumina plates (MN precoated TLC-sheets ALUGRAM Xtra SIL G/UV254). Visualization was done using UV light (254 or 366 nm) or staining with ninhydrin solution. Column chromatography was performed on a Biotage Isolera One automated flash purification system with a UV/vis detector. Analytical RP-HPLC was carried out on an Agilent 1220 Infinity LC System (column: P/No 00F-4251-B0, Phenomenex Luna 3 μm C18(2) 100 Å, LC column 150 mm × 2.0 mm). Purification by preparative HPLC was conducted on a preparative HPLC Agilent 1260 Infinity LC System [column: P/No 00G-4253-P0-AX, Phenomenex Luna 10 μm C18(2) 100 Å, LC column 250 mm × 21.2 mm]. The eluent systems were used as specified. After the purification process, solvents were removed by lyophilization. Switching experiments were done with a 340 nm LED (SSC VIOSYS CUD4AF1B, 500 mA, 55 mW), 420 nm LED (ILH-XC01-S410-SC211-WIR200, 800 mA, 440 mW), and 528 nm LED (OSRAM Oslon SSL 80 green, 500 mA, 34 mW). Purity of all photoprobes was >95% as determined by analytical RP-HPLC at 220 nm in DMSO.
1.3.4. Thermal Half-lives
Thermal half-lives were measured in a 96-well plate in a Thermo Scientific Multiskan® Spectrum at 25 °C (and at 37 °C for compounds 10 and 12). The solutions (50 µM in HEPES buffer + 0.25% DMSO) were pre-irradiated with 340 nm. The absorption at 335 nm was measured every 3 h. The data was analyzed using Origin 2021.
0,7 1/2 ExpDec1 Fit of Sheet1 B
Modell ExpDec1 0,35 Modell ExpDec1
0,6 Gleichung y = A 1 *e xp (-x/t1 ) + y0 Gleichung y = A 1 *e xp (-x/t1 ) + y0 […]

[5] = Photostationary state by analytical C18-RP-HPLC; format: physicochemical; details: for PSS (E → Z): irradiation with 340 nm, HEPES buffer; for PSS (Z → E): irradiation with 420 nm (8–17) or 528 nm (18, 19)
Experimental: All photoprobes were investigated regarding their photophysical properties in aqueous buffer (pH 7.5), mimicking the conditions of the biological functional assays.
1.3.2. Photostationary States
Photostationary states (PSS) were measured on analytical C18-RP-HPLC (flow: 0.3 mL/min, solvent A: H2O (0.05% TFA), solvent B: MeCN). To determine the PSS of the photoswitches, the samples (in 0.1 mM in HEPES buffer + 1% DMSO, pH 7.5) were irradiated first with 340 nm to get the Z-isomer. Afterwards, the sample was irradiated with 420 nm (8-17) or 528 nm (18 and 19), respectively, to get back to the E-isomer. The samples were measured at the isosbestic points.

[6] = IP-One, stable HEK293 hV1aR, μM, read-out: V1aR EC50
[7] = IP-One, stable HEK293 hV1bR, read-out: V1bR EC50 ± SEM
[8] = supplementary CSV, µM, read-out: activity E-isomer V1aR
[9] = supplementary CSV, µM, read-out: activity Z-isomer V1aR
[10] = supplementary CSV, read-out: activity E-isomer V1bR

| Compound | EC50 [1, 6] [µM] | Emax [2] [%] | EC50 [2, 7] [µM] | V1bR E/Z ratio EC50 [2] | antagonistic activity at V1aR [3] | t1/2 (thermal half-life, Figure S50) ([4]; 25 °C) [days] | t1/2 (thermal half-life Z to E) ([4]; 25 °C, HEPES buffer pH 7.4) [days] | PSS (E → Z) [5] [%] | PSS (Z → E) [5] [%] | agonist activity at V1aR [1] | EC50 [1, 8] [µM] | EC50 [1, 9] [µM] | reduced potency at V1bR compared to VP [2] | EC50 [2, 10] [µM] | EC50 ([2]; supplementary CSV, read-out: activity Z-isomer V1bR) [µM] | VP displacement [3] [%] | reduced potency at V1aR compared to VP ([1]; EC50 vs VP) [fold] | potency difference between the E and Z isomers at V1bR (photoswitch window) ([2]; EC50 E vs Z) | t1/2 (thermal half-life, Figure S50) ([4]; 37 °C) [days] | t1/2 (thermal half-life Z to E) ([4]; 37 °C) [days] |
| --- | --- | --- | --- | --- | --- | --- | --- | --- | --- | --- | --- | --- | --- | --- | --- | --- | --- | --- | --- | --- |
| NC(=O)CC[C@@H]1NC(=O)[C@H](Cc2ccccc2)NC(=O)[C@H](Cc2ccc(O)cc2)NC(=O)[C@@H](N)CSSC[C@@H](C(=O)NCc2ccc(/N=N\c3ccc(C(=O)NCC(N)=O)cc3)cc2)NC(=O)[C@H](CC(N)=O)NC1=O [Z-13] (H-CYFQNC[X2]G-NH2; disulfide 1-6) | > 10 | 52 ± 5 | 7.23 ± 1.57 | 1.6 | – | – | – | – | – | – | – | – | – | – | – | – | – | – | – | – |
| [AzbC(o,o)^1,Dap^6]-VP [compound 15] | – | – | – | – | some antagonistic properties | 2.7 | 2.7 | 88 | 69 | – | – | – | – | – | – | – | – | – | – | – |
| NC(=O)CC[C@@H]1NC(=O)[C@H](Cc2ccccc2)NC(=O)[C@H](Cc2ccc(O)cc2)NC(=O)[C@@H](N)CSSC[C@@H](C(=O)NCc2ccc(/N=N/c3ccc(C(=O)NCC(N)=O)cc3)cc2)NC(=O)[C@H](CC(N)=O)NC1=O [compound 13, [AzbL^7/8]-VP] (H-CYFQNC[AMPB(E)]G-NH2; disulfide 1-6) | – | – | – | – | some level of antagonistic activity | 0.517 | 0.5 | 85 | 79 | complete loss of potency | > 10 | > 10 | 700–2000 fold | 11.3 ± 1.83 | 7.23 ± 1.58 | 76 | – | – | – | – |
| N=C(N)NCCC[C@H](NC(=O)[C@@H]1CCCN1C(=O)[C@@H]1CSSC[C@H](N)C(=O)N[C@@H](Cc2ccc(O)cc2)C(=O)N[C@@H](Cc2ccc(/N=N/c3ccccc3)cc2)C(=O)N[C@@H](CCC(N)=O)C(=O)N[C@@H](CC(N)=O)C(=O)N1)C(=O)NCC(N)=O [compound 12, [AzbS^3]-VP] | – | – | – | – | – | 3.0 | 3.0 | – | – | – | – | – | – | – | – | – | > 1000 | 5.3 fold and 5 fold | 1.4 | 1.4 |
| NC(=O)CC[C@@H]1NC(=O)[C@H](Cc2ccccc2)NC(=O)[C@H](Cc2ccc(O)cc2)NC(=O)[C@@H](N)CSSC[C@@H](C(=O)NCc2ccc(/N=N/c3ccc(C(=O)NCC(N)=O)cc3)cc2)NC(=O)[C@H](CC(N)=O)NC1=O [E-13] (H-CYFQNC[AMPB(E)]G-NH2; disulfide 1-6) | > 10 | 45 ± 3 | 11.3 | 1.6 | – | – | – | – | – | – | – | – | – | – | – | – | – | – | – | – |
| N=C(N)NCCC[C@H](NC(=O)c1ccc(/N=N/c2ccc(CNC(=O)[C@@H]3CSSC[C@H](N)C(=O)N[C@@H](Cc4ccc(O)cc4)C(=O)N[C@@H](Cc4ccccc4)C(=O)N[C@@H](CCC(N)=O)C(=O)N[C@@H](CC(N)=O)C(=O)N3)cc2)cc1)C(=O)NCC(N)=O [compound 14, [AzbL^7]-VP] (H-CYFQNC[AMPB(E)]RG-NH2; disulfide 1-6) | – | – | – | – | some level of antagonistic activity | 1.4 | 1.4 | 81 | 86 | complete loss of potency | > 10 | > 10 | 700–2000 fold | 4.97 ± 0.754 | – | 85 | – | – | – | – |
